Measured values as given in PMC9727700 (Redox Biology, 2022).

Columns and labels:
[1] = test system: SH-SY5Y cells; experiment: Rotenone-treated SH-SY5Y cells: mitochondrial membrane potential; format: cell-based, human; conditions: rotenone 1 μM; HY08 0.3 μM; NAC 1 μM
[2] = test system: SH-SY5Y cells; experiment: Intracellular 4-HNE levels in fatty acid-treated SH-SY5Y cells; format: cell-based, human; conditions: 50 μM

Row | SMILES | rotenone-induced mitochondrial membrane potential loss and cell death [1] | intracellular 4-HNE production [2]
1 | CC(=O)N[C@@H](CS)C(=O)O [NAC, N-Acetyl cysteine] | exerted inhibitory effects | 
2 | CCCCC/C=C\C/C=C\C/C=C\C/C=C\CCCC(=O)O [AA, arachidonic acid] |  | significantly enhanced
